In PMC6700223 (Frontiers in Microbiology, 2019):

Tests used:
[1] = tested on: LASV GPC protein-mediated cell–cell fusion (293T/LASV/EGFP cells and Huh-7 cells); details: pH 5; for IC50: 12 h
[2] = type: physicochemical; details: pH 7.2

| Structure (SMILES) | IC50 [1] [µM] | Inhibition of cell–cell fusion at 20 μM [1] | α-helical ratio [2] [%] |
| --- | --- | --- | --- |
| CC[C@H](C)[C@H](NC(=O)[C@H](CC(=O)O)NC(=O)[C@H](CC(=O)O)NC(=O)[C@H](CO)NC(=O)[C@H](Cc1ccccc1)NC(=O)[C@H](Cc1c[nH]cn1)NC(=O)[C@@H](NC(=O)[C@H](CCC(=O)O)NC(=O)[C@H](CC(N)=O)NC(=O)[C@H](CC(C)C)NC(=O)[C@H](Cc1ccc(O)cc1)NC(=O)[C@@H](N)CO)[C@@H](C)O)C(=O)N[C@@H](CCC(=O)O)C(=O)N[C@@H](CCC(N)=O)C(=O)N[C@@H](CCC(N)=O)C(=O)N[C@@H](C)C(=O)N[C@@H](CC(=O)O)C(=O)N[C@@H](CC(N)=O)C(=O)N[C@@H](CCSC)C(=O)N[C@H](C(=O)N[C@H](C(=O)N[C@@H](CCC(=O)O)C(=O)N[C@@H](CCSC)C(=O)N[C@@H](CC(C)C)C(=O)N[C@@H](CCC(N)=O)C(=O)N[C@@H](CCCCN)C(=O)N[C@@H](CCC(=O)O)C(=O)N[C@@H](Cc1ccc(O)cc1)C(=O)N[C@@H](CCSC)C(=O)N[C@@H](CCC(=O)O)C(=O)N[C@@H](CCCNC(=N)N)C(=O)N[C@@H](CCC(N)=O)C(=O)NCC(=O)N[C@@H](CCCCN)C(=O)N[C@H](C(=O)N1CCC[C@H]1C(=O)N[C@@H](CC(C)C)C(=O)O)[C@@H](C)O)[C@@H](C)O)[C@@H](C)CC [HR2-2] | 26.4 | 30–40% | – |
| CC[C@H](C)[C@H](NC(=O)[C@H](CC(=O)O)NC(=O)[C@H](CC(=O)O)NC(=O)[C@H](CO)NC(=O)[C@H](Cc1ccccc1)NC(=O)[C@H](Cc1c[nH]cn1)NC(=O)[C@@H](NC(=O)[C@H](CCC(=O)O)NC(=O)[C@H](CC(N)=O)NC(=O)[C@H](CC(C)C)NC(=O)[C@H](Cc1ccc(O)cc1)NC(=O)[C@H](CO)NC(=O)CNC(=O)[C@H](CC(N)=O)NC(=O)[C@H](CO)NC(=O)[C@@H](NC(=O)[C@H](CC(C)C)NC(=O)[C@H](Cc1c[nH]c2ccccc12)NC(=O)[C@@H](N)CS)C(C)C)[C@@H](C)O)C(=O)N[C@@H](CCC(=O)O)C(=O)N[C@@H](CCC(N)=O)C(=O)N[C@@H](CCC(N)=O)C(=O)N[C@@H](C)C(=O)N[C@@H](CC(=O)O)C(=O)N[C@@H](CC(N)=O)C(=O)N[C@@H](CCSC)C(=O)N[C@H](C(=O)N[C@H](C(=O)N[C@@H](CCC(=O)O)C(=O)N[C@@H](CCSC)C(=O)N[C@@H](CC(C)C)C(=O)N[C@@H](CCC(N)=O)C(=O)N[C@@H](CCCCN)C(=O)N[C@@H](CCC(=O)O)C(=O)N[C@@H](Cc1ccc(O)cc1)C(=O)N[C@@H](CCSC)C(=O)N[C@@H](CCC(=O)O)C(=O)N[C@@H](CCCNC(=N)N)C(=O)N[C@@H](CCC(N)=O)C(=O)NCC(=O)N[C@@H](CCCCN)C(=O)N[C@H](C(=O)N1CCC[C@H]1C(=O)N[C@@H](CC(C)C)C(=O)NCC(=O)N[C@@H](CC(C)C)C(=O)N[C@H](C(=O)N[C@@H](CC(=O)O)C(=O)O)C(C)C)[C@@H](C)O)[C@@H](C)O)[C@@H](C)CC [HR2-1] | 0.37 | completely inhibit | 28 |
